Measured values: patent US20240091203A1, “METHODS FOR TREATING NON-OBSTRUCTIVE HYPERTROPHIC CARDIOMYOPATHY” (Cytokinetics, Incorporated, priority 2022, published 2024)
Entries after “also recorded” stand apart in the source; their conditions may differ. Like-named read-outs stand apart in the source and are kept apart here.

What was measured:
[1] = test system: patients with symptomatic non-obstructive HCM (nHCM) or HCM with MVO; assay: Phase 2 trial (Example 2): safety and tolerability; conditions: for Patients with fatal TEAEs: not related
From the text: The study excluded patients receiving disopyramide. […] Overall, the treatment duration was 10 weeks with a 4-week follow-up period after the last dose.
Patients were eligible to be included in the study only if all the following criteria apply: 1. Able to comprehend and willing to sign an informed consent form (ICF) and willing to comply with all study procedures and restrictions for the duration; 2. Males and females between 18 and 85 years of age at screening; 3. Body weight is ≥45 kg at screening; 4. Diagnosed with HCM per the following criteria: (a) has LV hypertrophy and non-dilated LV chamber in the absence of other cardiac disease; and (b) has minimal wall thickness ≥15 mm (minimal wall thickness ≥13 mm is acceptable with a positive family history of HCM or with a known disease-causing gene mutation); 5. Adequate acoustic windows for echocardiography; 7. Left ventricular ejection fraction (LVEF) ≥60% at screening; 8. New York Heart Association (NYHA) Class II or III at screening; 9. Patients on beta-blockers, verapamil, diltiazem, or ranolazine should have been on stable doses for ≥4 weeks and anticipate remaining on the same medication regimen during the study; 10. […] Able to complete all screening procedures.
Patients were excluded from the study if any of the following criteria applied: 1. Aortic stenosis or fixed subaortic obstruction; 2. Known infiltrative or storage disorder causing cardiac hypertrophy that mimics HCM (e.g., Noonan syndrome, Fabry disease, amyloidosis); 3. […] Documented history of current obstructive coronary artery disease (>70% stenosis in one or more epicardial coronary arteries) or documented history of myocardial infarction; 6. […] Has any ECG abnormality considered by the investigator to pose a risk to patient safety (e.g., second degree atrioventricular block type II); 9. Paroxysmal atrial fibrillation or flutter documented during the screening period; 10. […] Currently participating in another investigational device or drug study or received an investigational device or drug <1 month (or 5 half-lives for drugs, whichever is longer) prior to screening; 20.
Each patient received Dose 1 once daily for 2 weeks. […] Otherwise, the patient remained on Dose 1. If LVEF was <50% at Week 2, treatment was discontinued.
Otherwise, the patient remained on the same dose. If LVEF was <50% at Week 4, the patient returned to a prior dose level or treatment was discontinued if the patient was on Dose 1.
If LVEF was <50% at Week 6, the patient was down-titrated to a prior dose level or discontinued if the patient was on Dose 1.
Primary safety endpoints were: (i) patient incidence of reported AEs from first dose up to safety follow-up; (ii) patient incidence of reported SAEs from first dose up to safety follow-up; (iii) patient incidence of LVEF <50% from first dose up to safety follow-up.
Safety follow-up was defined as 4 weeks following the last dose.

healthy adults = test system: healthy adults; design: species or system human; conditions: in vivo
From the text: Study Overview and Ethics. The study used a randomized, placebo-controlled, single-ascending dose (SAD) and multiple-ascending dose (MAD) design (FIG. 2). […] Dose escalation was to be stopped when this range was achieved, or when a non-tolerated dose was identified, if earlier.
Participants and Treatments. To be eligible for this study, participants were to be healthy adults aged 18 to 55 years, with body mass index of 18.0 to 32.0 kg/m^2, normal electrocardiogram (ECG) and clinical laboratory values, or only minor abnormalities that were deemed not clinically significant. Participants also had to have normal cardiac structure and function, with LVEF ≥60% for the first 4 SAD cohorts, ≥65% for subsequent SAD cohorts, all MAD cohorts, and the food-effect cohort, and ≥55% for the CYP2D6-PM cohort. Before the study, participants were not allowed to use any prescription medication within 14 days, over-the-counter medication within 7 days (except acetaminophen), or tobacco or nicotine within 3 months; in addition, they were not permitted to consume alcohol, caffeine, or grapefruit within 48 h before study check-in.
A randomization schedule was centrally generated for each cohort and treatment period. […] Study drug was administered following an overnight fast, except during the fed period in the food-effect cohort.
Single-ascending dose (SAD) cohorts. The SAD portion of the study used a randomized, double-blind, placebo-controlled, sequential, escalating-dose design, in which participants received single-ascending oral doses of the study drug. Seven cohorts were dosed in sequence (FIG. 2).
Recommendations regarding dose escalation in the SAD cohorts—and in the MAD cohorts described below—were made by the treating investigator (who was blinded to treatment group) and endorsed or not by the Dose Level Review Committee (DLRC), who were unblinded. […] Criteria for escalation included that no more than 2 participants in a dose group developed an LVEF <50% and no individual developed an LVEF <45%.
Multiple-ascending dose (MAD) cohorts. The MAD cohorts also used a randomized, double-blind, placebo-controlled, sequential design.
CYP2D6 genotypes were determined at screening for all study participants; those identified as CYP2D6-PMs were excluded from the SAD and MAD cohorts but were invited to participate in the CYP2D6-PM cohort. The first individual in the CYP2D6-PM cohort was dosed after the SAD 25-mg cohort (FIG. 2). […] Nine participants were randomized (7:2) with a sentinel dosing group consisting of the first 2 participants treated.
Food-effect cohort. […] Participants were randomized in a 1:1 ratio to 1 of 2 sequences: fasted/fed or fed/fasted.
Safety and tolerability. Safety was assessed by the incidence of adverse events (AEs) and by incidence of reduced LVEF. Treatment-emergent AEs (TEAE) were defined as AEs that began or increased after study drug administration. All AEs were coded using the Medical Dictionary for Regulatory Activities version 21.1 and graded using the National Cancer Institute Common Terminology Criteria for AEs (version 4.03) 5-point severity scale. Each AE was judged as either related or unrelated to the study drug by the treating investigator. Clinical laboratory tests were obtained at regular intervals in all cohorts.
For safety monitoring, participants in all cohorts had periodic echocardiograms, which were assessed by a cardiologist. In the SAD and MAD cohorts, echocardiograms were also reviewed by an echocardiography core laboratory for PD assessments, as described below. In addition, participants in all cohorts were monitored with continuous 12-lead ECG recording using Holter monitors. For safety monitoring, a single 12-lead ECG was extracted at screening, pre-dose, and periodically throughout follow-up, and interpreted by the investigator. […]

[2] = test system: patients with symptomatic non-obstructive HCM (nHCM) or HCM with MVO; assay: Phase 2 trial (Example 2): patient-reported outcomes (KCCQ-CSS, SAQ-AF); type: in vivo, human
From the text: Health Status and Health-related Quality of Life: when available, patients completed patient-reported outcome (PRO) questionnaires prior to dosing at Day 1, at Week 6, at Week 10 and at Week 12. The following instruments were be used at these visits: by Short Form 36 physical function sub-scale (SF-36-PFS), Kansas City Cardiomyopathy Questionnaire Clinical Summary Score (KCCQ-CSS), SAQ7, PGI-C (Week 10 only), and CGI (Week 10 only).
The exploratory health status and health-related quality of life endpoints included but were not limited to change from baseline to Week 10 and a slope of change from baseline to Week 10 in: (i) T-scores for PROMIS Dyspnea Severity Short Form 10a, PROMIS Dyspnea Severity Short Form 10a with two additional items, PROMIS Fatigue Short Form 7a, and PROMIS Physical Function Short Form 8b; (ii) Norm-based T scores for SF-36 Physical Functioning subscale; (iii) Individual responses to the HCM Global Impression of Status questionnaire at baseline, Week 6, and Week 10; (iv) Individual responses to the HCM Global Impression of Change questionnaire at Week 6 and Week 10; (v) Change in KCCQ score from baseline to Week 10; and (vi) Change in SAQ7 score from baseline to Week 10.

[3] = number of patients, N = 41, interim

## CCc1nc(-c2ccc3c(c2)CC[C@H]3NC(=O)c2cnn(C)c2)no1 [aficamten, (R)—N-(5-(5-ethyl-1,2,4-oxadiazol-3-yl)-2,3-dihydro-1H-inden-1-yl)-1-methyl-1H-pyrazole-4-carboxamide]
[1]; 4 of 41 patients including one death, second interim
  patients who experienced SAEs: 9.8%
[1]; 10 weeks, nHCM patients
  overall tolerability: well-tolerated overall
[1]; Week 10 (EOT), 3 of 41 patients
  patients with LVEF <50%: 7.3%
[1]; by Week 12 (2 weeks' washout)
  recovery of LVEF in patients with LVEF <50%: All 3 patients returned to baseline LVEF; also recorded: All LVEF returned to normal
[1]; interim
  AEs of heart failure: No AEs of heart failure
  drug discontinuations due to AE: no drug discontinuations
  relatedness of SAEs (bronchitis, new onset atrial fibrillation, cardiac arrest) per Investigator: None of these were deemed related to aficamten
[1]; [3]
  Patients reporting at least one TEAE: 27
  Patients with AEs related to study drug (per Investigator): 4
  Patients with Moderate TEAEs: 14
  Patients with Severe TEAEs: 3
  Patients with fatal TEAEs: 1
[1]; percent of N = 41, interim
  Patients with AEs related to study drug (per Investigator): (9.8) %
  Patients with Moderate TEAEs: (34) %
  Patients with Severe TEAEs: (7.3) %
  Patients with TESAEs: (7.3) %
  Patients with fatal TEAEs: (2.4) not related %
[1]; second interim
  attribution of SAEs: None of the SAEs were attributed to aficamten
  events with LVEF <40%: no events with LVEF <40%; also recorded: No LVEF <40% occurred
  treatment interruptions or down-titration events related to LVEF <50%: no treatment interruptions or down-titration events
[1]; week 9, interim
  patients with dose reduction to 10 mg for AE fatigue: One patient
[1]; weeks 0-6, interim
  LVEF <50% during the titration period: no LVEF were less than 50%
Healthy adults; female, human
  Echocardiogram-related AE of decreased ejection fraction <45%: Onset (time after drug dose): 1.4 h
Healthy adults; human
  QTcF: ≤ 450 ms
  increase in QTcF interval: ≤ 30 ms
  participants with echocardiogram-related AEs of decreased ejection fraction <45%: 3 participants
  time to resolution of echocardiogram-related AEs of decreased ejection fraction: 2.5 to 4.6 h
Healthy adults
  LVEF of 1 participant after cohort expansion: < 45%
  decrease in LVEF of 1 participant after cohort expansion: > 15%
  discontinuation of the study due to AEs: no participants discontinued
  mean safety ECG parameters: within normal limits
  post-dose LVEF of sentinel participant: < 45%
  post-dose LVEF of the participant with LVEF <50%: 46.2%
  serum chemistry, hematology, or urinalysis findings: No clinically significant
  vital signs: within normal limits
Healthy adults; male, human
  Echocardiogram-related AE of decreased ejection fraction <45%: Onset (time after drug dose): 1.5 h
[2]; 21 patients, week 10, interim
  patients improving KCCQ-CSS by ≥5 points: 54%
[2]; from baseline median (IQR) 69.8 (56.8, 83.9), interim
  improvement in KCCQ-CSS, median (IQR): 7.3 (−1.0, 18.8) points
[2]; week 10, second interim
  patients with clinical reduction in symptom burden (KCCQ-CSS): 58%
[2]; week 10, second interim, p<0.0001
  improvement in mean KCCQ-CSS: 10.6 points
